Results published in ChEMBL document CHEMBL1781913, “Design and synthesis of 3-alkyl-2-aryl-1,3-thiazinan-4-one derivatives as selective cyclooxygenase (COX-2) inhibitors” (Bioorg Med Chem Lett, 2009).

Target: T1, Prostaglandin G/H synthase 1 (Ovis aries, UniProt P05979)
T1 sequence (P05979 whole entry): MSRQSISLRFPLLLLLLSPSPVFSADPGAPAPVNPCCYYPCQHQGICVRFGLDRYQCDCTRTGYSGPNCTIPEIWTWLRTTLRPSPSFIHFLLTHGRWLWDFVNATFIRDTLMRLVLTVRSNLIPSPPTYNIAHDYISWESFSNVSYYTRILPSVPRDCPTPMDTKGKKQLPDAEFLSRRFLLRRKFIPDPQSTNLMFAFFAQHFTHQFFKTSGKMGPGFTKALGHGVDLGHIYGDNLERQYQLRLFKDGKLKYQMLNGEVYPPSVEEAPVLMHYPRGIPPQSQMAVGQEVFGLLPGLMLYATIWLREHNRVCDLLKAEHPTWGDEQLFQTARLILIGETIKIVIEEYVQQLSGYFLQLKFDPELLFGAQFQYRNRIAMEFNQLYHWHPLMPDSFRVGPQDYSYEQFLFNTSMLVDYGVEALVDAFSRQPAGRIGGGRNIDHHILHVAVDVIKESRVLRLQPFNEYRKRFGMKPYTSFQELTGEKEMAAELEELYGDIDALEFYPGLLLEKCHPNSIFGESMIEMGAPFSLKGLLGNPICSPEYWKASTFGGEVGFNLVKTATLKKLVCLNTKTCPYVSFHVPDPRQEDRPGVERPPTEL
Experiment: Inhibition of ovine COX1 by chemiluminescent assay

| Compound | IC50 [µM] |
| --- | --- |
| CCCCCN1C(=O)CCSC1c1ccc(S(C)(=O)=O)cc1 (stereo not given) | 14.9 |
| CCCCN1C(=O)CCSC1c1ccc(S(C)(=O)=O)cc1 (stereo not given) | 14.8 |
| CS(=O)(=O)c1ccc(C2SCCC(=O)N2CCc2ccccc2)cc1 (stereo not given) | 16 |
| CCCN1C(=O)CCSC1c1ccc(S(C)(=O)=O)cc1 (stereo not given) | 14.1 |
| CS(=O)(=O)c1ccc(C2SCCC(=O)N2Cc2ccccc2)cc1 (stereo not given) | 17.2 |
